The text below walks through data of ChEMBL document CHEMBL1201862, “PubChem BioAssay data set” (2004).

Where “and” joins values, the source holds several entries; their conditions need not be identical. Equal values may be shown once.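 Five concentrations, 48 hours, 96-well plates. Abbreviation: GI50, concentration required for 50% inhibition of growth.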 Calls of active or inactive are those of the source. Cut-off read from the data, not from the text of the source: active = GI50 up to about 1.1 µM and inactive = higher.

Common to all, as to experiment: NCI tumour cell line growth inhibition, 48 h
The subject of test [1] is Malme-3M.
Test [2] has as its system SR.
In test [3] the test system is SF-539.
Test [4] concerns CCRF-CEM.
Test [5] concerns SW-620.
For test [6], the system named is RPMI-8226.
Test [7] relates to TK-10.
Test [8] deals with SK-OV-3.
Test [9] deals with UACC-257.
Test [10] relates to SK-MEL-2.
The subject of test [11] is KM12.
The test system of test [12] is Hs-578T.
The test system of test [13] is COLO 205.
Test [14] concerns MOLT-4.
For test [15], the system named is BT-549.
Test [16] has as its system HCT-15.
The subject of test [17] is OVCAR-5.
The test system of test [18] is NCI-H23.

On to `CC(C)OC(=O)[C@@H]1OC(C)(C)O[C@H]1C(=O)OC(C)C`, for which the GI50 in test [1], in test [2], in test [3], in [4], in [5] and in [6] was > 100 µM (inactive) throughout. The GI50 in test [7], in [8], in test [9], in [10], in [11] and in test [12] was > 100 µM (inactive) throughout. The GI50 in test [13] was > 100 µM (inactive); in [14], > 100 µM (inactive); in test [15] it was > 100 µM (inactive); in test [16], greater than 100 µM; in test [17], > 100 µM (inactive); in test [18], > 100 µM (inactive).

`CC(NC(=O)c1ccccc1)(C(=O)O)C(=O)O`: the GI50 in test [1], in [2], in test [3], in [4], in test [5] and in [6] was > 100 µM (inactive) throughout. Moreover, the GI50 in [7], in [8], in test [9], in test [10], in test [11] and in [12] was > 100 µM (inactive) throughout. Further, the GI50 in [13] was > 100 µM (inactive); in test [14], > 100 µM (inactive); in test [15], > 100 µM (inactive); in test [16] it was greater than 100 µM; in test [17], > 100 µM (inactive); in test [18] it was > 100 µM (inactive).

For `COc1ccc(C2c3cc4c(cc3OC(N3CCOCC3)C2C)OCO4)c(OC)c1` (stereo not given), the GI50 in test [1] is 5.11 µM (inactive); in [2], 4.21 µM (inactive); in test [3], 3.05 µM (inactive); in [4] it was 3.5 µM (inactive); in test [5], 3.72 µM (inactive); in test [6], 3.15 µM (inactive). Further, the GI50 was 7.78 µM (inactive) in test [7]; 4.43 µM (inactive) in test [8]; 6.3 µM (inactive) in test [9]; 4.95 µM (inactive) in test [10]; 4.94 µM (inactive) in [11]; 1.97 µM (inactive) in [12]. Also, the GI50 is 9.33 µM (inactive) in test [13]; 3.58 µM (inactive) in [14]; 3.23 µM (inactive) in [15]; 4.34 µM in test [16]; 19.1 µM (inactive) in test [17]; 11.9 µM (inactive) in test [18].

As to `S=C(c1c[nH]c2ccccc12)N1CCN(c2ccccc2)CC1`, the GI50 was 18.8 µM (inactive) in test [1]; > 100 µM (inactive) in test [2]; 71.6 µM (inactive) in test [3]; > 100 µM (inactive) in test [4]; > 100 µM (inactive) in [5]; > 100 µM (inactive) in [6]. Also, the GI50 in test [7] is > 100 µM (inactive); in test [8], > 100 µM (inactive); in test [9] it was > 100 µM (inactive); in test [10], > 100 µM (inactive); in test [11] it was 82.8 µM (inactive); in [12], 1.06 µM (active). Besides, the GI50 was > 100 µM (inactive) in [13]; > 100 µM (inactive) in [14]; > 100 µM (inactive) in test [15]; greater than 100 µM in [16]; > 100 µM (inactive) in test [17]; > 100 µM (inactive) in test [18].

On to `Cc1nc2c(nc1C)-c1c(c3c(n1C)C(=O)CCC3)C(=O)C2=O`, for which the GI50 in test [1] was 0.297 µM (active); in test [2], 0.175 µM (active); in test [3] it was 1.22 µM (inactive); in test [4], 0.219 µM (active); in test [5], 0.214 µM (active); in test [6], 0.194 µM (active). Moreover, the GI50 in test [7] is 2.22 µM (inactive); in test [8], 1.27 µM (inactive); in test [9] it was 1.4 µM (inactive); in test [10] it was 0.571 µM (active); in test [11] it was 1.45 µM (inactive); in test [12], 1.42 µM (inactive). Also, the GI50 is 1.75 µM (inactive) in [13]; 0.312 µM (active) in test [14]; 0.0259 µM (active) in test [15]; 0.334 µM in test [16]; 0.953 µM (active) in test [17]; 0.743 µM (active) in test [18].

With `COc1ccc2[nH]c3c(C)c4ncccc4c(C)c3c2c1`, the GI50 in test [1] is 1.65 µM (inactive); in [2] it was 5.22 µM (inactive); in [3], 4.73 µM (inactive); in test [4], 3.85 µM (inactive); in test [5], 1.98 µM (inactive); in test [6], 3.44 µM (inactive). Also, the GI50 in test [7] was > 10 µM (inactive); in test [8], > 10 µM (inactive); in test [9] it was > 10 µM (inactive); in [10], > 10 µM (inactive); in test [11], 1.93 µM (inactive); in [12], > 10 µM (inactive). Besides, the GI50 in test [13] was 6.95 µM (inactive); in test [14] it was 4.04 µM (inactive); in test [15] it was > 10 µM (inactive); in [16], 2.99 µM; in [17] it was 5.61 µM (inactive); in [18], > 10 µM (inactive).

Consider `CC(=O)c1ccc2c(c1)CC1(C2)Cc2ccc3c(c2C1=O)CCC3` (stereo not given), for which the GI50 in test [1] is 18 µM (inactive); in test [2] it was 65.5 µM (inactive); in test [3], 27.7 µM (inactive); in test [4] it was 24.3 µM (inactive); in [5], 41 µM (inactive); in [6], 16.1 µM (inactive). Further, the GI50 is 24 µM (inactive) in [7]; 34.9 µM (inactive) in test [8]; 10.8 µM (inactive) in [9]; 17.1 µM (inactive) in test [10]; 28.2 µM (inactive) in [11]; 31.5 µM (inactive) in test [12]. Moreover, the GI50 is 18.3 µM (inactive) in [13]; 14.9 µM (inactive) in [14]; 27.9 µM (inactive) in [15]; 25 µM in test [16]; 36.8 µM (inactive) in test [17]; 31.2 µM (inactive) in test [18].

As for `O=C(O)Cc1cccnc1`, the GI50 in test [1], in test [2], in test [3], in [4], in [5] and in test [6] was > 100 µM (inactive) throughout. The GI50 in [7], in [8], in test [9], in [10], in [11] and in [12] was > 100 µM (inactive) throughout. Besides, the GI50 in test [13] was > 100 µM (inactive); in test [14], > 100 µM (inactive); in test [15], > 100 µM (inactive); in test [16], greater than 100 µM; in [17] it was > 100 µM (inactive); in test [18], > 100 µM (inactive).

Consider `CN1CCN(c2ccc([N+](=O)[O-])c3no[n+]([O-])c23)CC1`, for which the GI50 was 0.16 µM (active) in [1]; < 0.01 µM (active) in test [2]; 0.0652 µM (active) in test [3]; 0.0143 µM (active) in [4]; 0.0631 µM (active) in test [5]; 0.0628 µM (active) in test [6]. Besides, the GI50 was 0.792 µM (active) in test [7]; 0.148 µM (active) in test [8]; 1.19 µM (inactive) in test [9]; 1.34 µM (inactive) in [10]; 0.098 µM (active) in test [11]; 0.571 µM (active) in test [12]. In addition, the GI50 in test [13] is 0.656 µM (active); in test [15], 1.09 µM (active); in test [16] it was 0.489 µM; in test [17] it was 1.76 µM (inactive); in test [18] it was < 0.0359 µM (active).

With `C=C(Cl)/C(=C\Cl)CCC(Cl)C(C)C` (stereo not given), the GI50 in [1] was > 100 µM (inactive); in [2], 56.5 µM (inactive); in test [3], > 100 µM (inactive); in test [4], 41.2 µM (inactive); in test [5] it was 74.3 µM (inactive); in test [6] it was 65.2 µM (inactive). For the same compound, the GI50 in [7], in test [8], in [9], in [10], in [11] and in test [12] was > 100 µM (inactive) throughout. Also, the GI50 in test [13] is > 100 µM (inactive); in test [14] it was 44.2 µM (inactive); in test [15], > 100 µM (inactive); in test [17] it was > 100 µM (inactive); in test [18], > 100 µM (inactive).

For `N=C(N)N/N=C/c1c(-c2cc([N+](=O)[O-])c(Cl)cc2Cl)nc2sccn12`, the GI50 is 1.67 µM (inactive) and 239 nM (active) in test [1]; 0.0368 µM (active) in test [2]; 1.53 µM (inactive) and 1.85 µM (inactive) in [3]; 0.714 µM (active) in test [4]; 435 nM (active) and 1.27 µM (inactive) in [5]; 1.27 µM (inactive) and 1.75 µM (inactive) in test [6]. The GI50 in test [7] was 1.54 µM (inactive) and 1.57 µM (inactive); in [8], 1.83 µM (inactive); in test [9], 1.41 µM (inactive) and 1.44 µM (inactive); in test [10], 1.91 µM (inactive) and 1 µM (active); in test [11], 168 nM (active) and 1.19 µM (inactive); in test [12], 1.54 µM (inactive) and 1.53 µM (inactive). Moreover, the GI50 is 0.124 µM (active) in test [14]; 1.4 µM (inactive) and 1.46 µM (inactive) in [15]; 2.47 µM and 1.26 µM in [16]; 1.87 µM (inactive) in test [17]; 1.56 µM (inactive) and 1.36 µM (inactive) in test [18].
